Measured values reported in paper PMC2810561 (Journal of the American Chemical Society, 2009).

System: T84 human intestinal cells
Format: cell-based

Substance: cholera toxin
- secretory response (short-circuit current) to cholera toxin: a pronounced secretory response was observed
